# From article PMC3889466 (Journal of medicinal chemistry, 2013)
# Key:
# [1] = molecular target: T1, A/M2 S31N (Influenza A virus, UniProt P0DOF5, S31N); conditions: conductance assay in M2-expressing oocytes; cited from earlier work
# [2] = molecular target: A/M2 V27A (Influenza A virus, UniProt P0DOF5, V27A); conditions: cited from earlier work
# [3] = molecular target: T1, A/M2 S31N; assay type: cell-based, influenza A/Udorn/72; conditions: pH 5.5
SMILES,Activity against the S31N mutant form of A/M2 (in words) [1],Activity against the V27A mutant form of A/M2 (in words) [2],A/M2 S31N Inhibition by 100 μM for 2 min (%) [3]
CC12CC3CC1(C)CC3(N)C2 [Compound 6],inactive,inactive,–
CC12CC3CC1(C)CC3(CN)C2 [Compound 7],inactive,inactive,–
NC12C3CCC4C3C3C(CCC31)C42 [Compound 8],–,did not show any activity,–
NCC12C3CCC4C3C3C(CCC31)C42 [Compound 9],–,did not show any activity,–
C1=CC2C3C4C5C=CC4C24CNCC54C13 [Compound 10],–,marginal activity,–
C1C2C1C1C3C4C5C6CC6C4C14CNCC54C23 (stereo not drawn) [Compound 11],–,marginal activity,–
"CC12CC34CNCC3(C1)CC2(C)C4.Cl [Compound 14a, 7,8-Dimethyl-3-azatetracyclo[5.2.1.1^5,8.0^1,5]undecane hydrochloride]",–,–,0%
